Source: US10752584B2 (EMORY UNIVERSITY, priority 2016, dated 2020)

Legend:
Format in all cases: cell-based
[1] = test system: mitochondrial DNA (COXII gene) in HepG2 cells; experiment: Mitochondrial toxicity assay in HepG2 cells: mitochondrial DNA; settings: for MtDNA (% of control): human, 14 day
[2] = test system: mitochondrial DNA (COXII gene) in HepG2 cells; experiment: as above
Excerpt: (§1) A real-time PCR assay to accurately quantify mitochondrial DNA content has been developed (see Stuyver L J, Lostia S, Adams M, Mathew J S, Pai B S, Grier J, Tharnish P M, Choi Y, Chong Y, Choo H, Chu C K, Otto M J, Schinazi R F. Antiviral activities and cellular toxicities of modified 2′,3′-dideoxy-2′,3′-didehydrocytidine analogs. Antimicrob. Agents Chemother. 2002; 46: 3854-60). This assay was used in all studies described in this application that determine the effect of compounds on mitochondrial DNA content. In this assay, low-passage-number HepG2 cells were seeded at 5,000 cells/well in collagen-coated 96-well plates. Test compounds were added to the medium to obtain final concentrations of 0 μM, 0.1 μM, 10 μM and 100 μM. On culture day 7, cellular nucleic acids were prepared by using commercially available columns (RNeasy 96 kit; Qiagen). […] The mitochondrial cytochrome c oxidase subunit II (COXII) gene and the β-actin or rRNA gene were amplified from 5 μl of the eluted nucleic acids using a multiplex Q-PCR protocol with suitable primers and probes for both target and reference amplifications. For COXII the following sense, probe and antisense primers were used, respectively: 5′-TGCCCGCCATCATCCTA-3′, 5′-tetrachloro-6-carboxyfluorescein-[…]-TAMRA-3′ and 5′-[…]-3′. For exon 3 of the β-actin gene (GenBank accession number E01094) the sense, probe, and antisense primers are 5′-GCGCGGCTACAGCTTCA-3′, 5′-6-[…]-3′ and 5′-[…]-3′, respectively. The primers and probes for the rRNA gene are commercially available from Applied Biosystems. Since equal amplification efficiencies are obtained for all genes, the comparative CT method was used to investigate potential inhibition of mitochondrial DNA synthesis. The comparative CT method uses arithmetic formulas in which the amount of target (COXII gene) is normalized to the amount of an endogenous reference (the β-actin or rRNA gene) and is relative to a calibrator (a control with no drug at day 7). The arithmetic formula for this approach is given by 2−ΔΔCT, where ΔΔCT is (CT for average target test sample CT for target control)−(CT for average reference test−CT for reference control) (see Johnson M R, K Wang, J B Smith, M J Heslin, R B Diasio. Quantitation of dihydropyrimidine dehydrogenase expression by real-time reverse transcription polymerase chain reaction. Anal. Biochem. 2000; 278:175-184). A decrease in mitochondrial DNA content in cells grown in the presence of drug indicated mitochondrial toxicity.
(§2) The effect of compounds 7 and 9 on the levels of mitochondrial and nuclear DNA, and lactic acid production was evaluated in HepG2 cells (14-day assay), and the data is tabulated below in Table 2: […]

HepG2 cells = experiment: Lactic acid production in HepG2 cells; settings: 14-day assay
Experimental: To measure the effects of the compounds on lactic acid production, HepG2 cells from a stock culture were diluted and plated in 12-well culture plates at 2.5×10^4 cells per well. Various concentrations (0 μM, 0.1 μM, 1 μM, 10 μM and 100 μM) of compound were added, and the cultures were incubated at 37° C. in a humidified 5% CO2 atmosphere for 4 days. At day 4, the number of cells in each well was determined and the culture medium collected. The culture medium was then filtered, and the lactic acid content in the medium was determined using a colorimetric lactic acid assay (Sigma-Aldrich). Since lactic acid product can be considered a marker for impaired mitochondrial function, elevated levels of lactic acid production detected in cells grown in the presence of test compounds would indicate a drug-induced cytotoxic effect.
as §2

[3] = test system: nuclear DNA in HepG2 cells; experiment: Mitochondrial toxicity assay in HepG2 cells: nuclear DNA; settings: Homo sapiens
Excerpt: as §1, §2

[4] = Cellular toxicity assay in Vero cells; settings: African green monkey, read-out: Cytotoxicity
How it was run: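 Cytotox IC50 from conc-response curve, median effective method. Cycloheximide = positive ctrl; untreated cells + solvent = negative ctrl.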

HBV e antigen (HBeAg) = experiment: HBeAg ELISA in HepAD38 cells (cccDNA-dependent marker); settings: Hepatitis B virus, HePAD38, 336 h
Experimental: Production of secreted HBeAg is predominantly cccDNA-dependent in HepAD38 cells and therefore can serve as a surrogate marker for cccDNA (Ladner, S. K., Otto, M. J., Barker, C. S., Zaifert, K., Wang, G. H., Guo, J. T., Seeger, C., King, R. W. Antimicrob Agents Chemother 1997, 41, 1715-1720; Zhou T, Guo H, Guo J T, Cuconati A, Mehta A, Block T M. Antiviral Res. 2006; 72 (2): 116-24.). The effect on the levels of cccDNA formation was assessed using a cell-based assay that measures HBV e antigen (HBeAg) as a cccDNA-dependent marker in the HepAD38 system. HepAD38 cells were seeded at 50,000 cells/well in collagen-coated 96-well plates with DMEM/F12 medium (Life Technologies) supplemented with 10% heat-inactivated fetal bovine serum. Cells were treated with 0.3 μg/ml tetracycline as needed. Test compounds and controls were added to cells to a final concentration of 10 μM or in a dose response manner ranging from 0.001 to 10 μM. Medium and test compounds were replenished every 5 days in culture. Supernatants were harvested at day-14, clarified by centrifugation at 5000 rpm for 5 min, and stored at −70° C. until use. ELISA—Culture medium was diluted 1:15 in DMEM/F12 and the levels of HBeAg secreted in the culture medium were measured by using HBeAg ELISA kit (BioChain Institute Inc. Hayward, Calif.) according to the manufacturer's protocol. The concentration of compound that reduced levels of secreted HBeAg by 50% (EC50) was determined by linear regression.

[5] = Homo sapiens, HepG2, 336 h, read-out: % inhibition MtDNA

For `C#CCNC(=O)C(=O)c1c(C)c(C(=O)Nc2ccc(F)c(F)c2)n(C)c1C` [Compound 7a, 4-[(Propargylamino)(oxo)acetyl]-N-(3,4-difluorophenyl)-1,3,5-trimethyl-1H-pyrrole-2-carboxamide], the inhibition at 25 µM [1, 5] was < 1%, the inhibition at 50 µM [1, 5] was 17.7% and the “MtDNA (% of control)” value ([1]; 25 μM) was 91.8 (80.2-105) % of control. For the same molecule, the “MtDNA (% of control)” value ([1]; 50 μM) was 94.6 (73.8-121) % of control, the inhibition at 10 µM [2, 5] was < 1% and the IC50 ([2]; Homo sapiens, HepG2, 336 h, read-out: IC50 MtDNA) was > 50 µM. For the same molecule, the “MtDNA (% of control)” value ([2]; human, 14 day, 10 μM) was 110 (100-121) % of control, the “Lactic acid production (% of control)” value (HepG2 cells; 10 μM) was 103 ± 32.0 % of control and the “Lactic acid production (% of control)” value (HepG2 cells; 25 μM) was 106 ± 19.5 % of control. The “Lactic acid production (% of control)” value (HepG2 cells; 50 μM) was 193 ± 12.6 % of control, the IC50 ([3]; 336 h, HepG2 cells, 14-day assay) was > 50 µM and the inhibition at 10 µM ([3]; 336 h, HepG2 cells, 14-day assay, 10 μM, read-out: % inhibition nDNA) was 5.4%. For the same molecule, the inhibition at 25 µM ([3]; 336 h, HepG2 cells, 14-day assay, 25 μM, read-out: % inhibition nDNA) was < 1%, the inhibition at 50 µM ([3]; HepG2, 336 h, read-out: % inhibition nDNA) was 13.1% and the CC50 [4] was > 90 µM. It also gave an EC50 (HBV e antigen (HBeAg); read-out: Anti-HBeAg activity EC50) of 8 nM and an EC90 (HBV e antigen (HBeAg); read-out: Anti-HBeAg activity EC90) of 580 nM.
